US10391201B2, “Gene therapy” (Ospedale San Raffaele S.r.l., priority 2014, dated 2019)

How the values were obtained:
[1] = test system: bone marrow (BM)-derived CD34+ cells; assay type: cell-based, human; conditions: BM-derived CD34+ HSPC; MOI 1; 20 μm FK506, 5 mM 3-MA alone or with 10 μM CsA / 10 μg/mL rapamycin
Protocol: (§1) Human CB and BM-derived haematopoietic stem/progenitor cells (HSPC) were cultured in serum-free StemSpan medium (StemCell Technologies) supplemented with 100 ng/mL recombinant human stem cell factor (rhSCF), 20 ng/mL recombinant human thrombopoietin (rhTPO), 100 ng/mL recombinant human Flt3 ligand (rhFlt3) and 20 ng/mL recombinant human IL6 (rhIL6) (all from Peprotech) 16 to 24 hours prior to transduction. HSPC were then transduced at a concentration of 1×10^6 cells per mL with vesicular stomatitis virus glycoprotein (VSV-G)-pseudotyped SINLV for 20 hours at the indicated multiplicity of infection (MOI) in the same medium. After transduction, cells were washed and maintained serum-free StemSpan supplemented with cytokines as above until the reading of GFP-positive (GFP+) cells by FACS. After FACS they were maintained in Roswell Park Memorial Institute medium (RPMI, Lonza) supplemented with 10% FBS, 25 ng/mL rhSCF, 5 ng/mL rhIL6, 25 ng/mL rhFlt3 and 5 ng/mL rhTPO for another seven days before analysis of vector copy numbers. MDM were transduced 7 days after differentiation. T lymphocytes were transduced at a concentration of 10^6 cells per mL, after 3 days of stimulation. All the cells were exposed to the vector for 16-20 hours.
(§2) They were added to the transduction medium at the indicated concentration and washed out with the vector 16-20 hours later.
(§3) GFP expression in transduced cells was measured 5-7 days post-transduction. Adherent MDM were detached by scraping in 5 mM PBS-EDTA, washed and resuspended in PBS containing 2% FBS. Cells grown in suspension were washed and resuspended in PBS containing 2% FBS. To exclude dead cells from the analysis, 10 ng/mL 7-aminoactinomycin D (7-AAD) was added.
(§4) DNA from cell cultures was extracted using a Maxwell 16 instrument (Promega) or Blood & Cell Culture DNA Micro Kit (Qiagen). To amplify the vector sequence, primers and probes complementary to the vector Rev responsive element sequence were used. Vector copy numbers and replication intermediates were normalised to genomic DNA content, which was assessed using the human TERT gene. Quantitative polymerase chain reaction (qPCR) primers and probe sequences and conditions were previously described (Santoni de Sio, F. R. et al (2006) Blood 107: 4257-65).

[2] = test system: cord blood (CB)-derived CD34+ cells; assay type: cell-based, human; conditions: CB-derived CD34+ HSPC; MOI 1; 20 μm FK506, 5 mM 3-MA alone or with 10 μM CsA / 10 μg/mL rapamycin
Protocol: as §1, §2, §3, §4

In the case of `Cn1cnc(N)c2ncnc1-2` [3-MA, 3-methyladenine], the “impact on LV transduction efficiency (in words)” value [1] is reported as “little or no effect” and the “impact on LV transduction efficiency (in words)” value [2] is reported as “little or no effect”.
